# Laboratory results published in US5061794A, “Cephalosporin derivatives, and antibacterial agents” (priority 1986, dated 1991).
# Read-outs that look alike come from different tables or passages of the source.
# Experiments:
# Ps. cepacia 23 = assay: in vitro antibacterial activity, agar plate dilution method (MIC); assay type: cell-based, Pseudomonas cepacia; conditions: Burkholderia cepacia, 16 h; Ps. cepacia 23; 10^6 CFU/ml; read-out: Minimum Inhibitory Concentration (MIC)
# Protocol: (§1) The in vitro antibacterial activities of the compounds of the present invention against various microorganisms, were measured by the following agar plate dilution method. One platinum loopfull of each test microorganism incubated overnight in Mueller Hinton broth, was inoculated to Mueller Hinton agar (inoculum size: 10^6 CFU/ml). Such culture media containing various antibiotics in various concentrations were prepared. After incubation at 37° C. for 16 hours, the minimum inhibitory concentrations (MIC: μg/ml) were measured.
# K. pneumoniae PCI-602 = assay: as above; assay type: cell-based; conditions: Klebsiella pneumoniae, PCI602, 16 h, read-out: Minimum Inhibitory Concentration (MIC), K. pneumoniae PCI-602; 10^6 CFU/ml
# Protocol: as §1
# E. coli GN5482 = assay: as above; assay type: cell-based; conditions: Escherichia coli, GN5482, 16 h
# Protocol: as §1
# S. aureus 209P NIHJ-JC1 = assay: as above; assay type: cell-based; conditions: Staphylococcus aureus, 16 h
# Protocol: as §1
# P. vulgaris HX-19 = assay: as above; assay type: cell-based; conditions: Proteus vulgaris, HX19, 16 h, P. vulgaris HX-19; 10^6 CFU/ml; read-out: Minimum Inhibitory Concentration (MIC)
# Protocol: as §1
# S. marcescens No. 16-2 = assay: as above; assay type: cell-based; conditions: Serratia marcescens, NO.162, 16 h
# Protocol: as §1
# K. oxytoca GN10650 = assay: as above; assay type: cell-based; conditions: Klebsiella oxytoca, 10^6 CFU/ml
# Protocol: as §1
# S. marcescens IAM 1184 = assay: as above; assay type: cell-based; conditions: Serratia marcescens, IAM1184, 16 h, S. marcescens IAM 1184; 10^6 CFU/ml; read-out: Minimum Inhibitory Concentration (MIC)
# Protocol: as §1
# E. coli NIHJ JC2 = assay: as above; assay type: cell-based; conditions: Escherichia coli, NIHJJC2, 16 h, read-out: Minimum Inhibitory Concentration (MIC), E. coli NIHJ JC2, 10^6 CFU/ml, 37° C.
# Protocol: as §1
# E. cloacae Nek 39 = assay: as above; assay type: cell-based; conditions: Enterobacter cloacae, NEK39, 16 h, read-out: Minimum Inhibitory Concentration (MIC), *E. cloacae Nek 39, lactamase-producing strain; 10^6 CFU/ml
# Protocol: as §1
# E. cloacae 963 = assay: as above; assay type: cell-based; conditions: 10^6 CFU/ml
# Protocol: as §1
# K. pneumoniae No. 42 = assay: as above; assay type: cell-based; conditions: Klebsiella pneumoniae, NO.42, 16 h, read-out: Minimum Inhibitory Concentration (MIC), *K. pneumoniae No. 42, lactamase-producing strain; 10^6 CFU/ml
# Protocol: as §1
# P. vulgaris No. 33 = assay: as above; assay type: cell-based; conditions: Proteus vulgaris, NO.33, 16 h, read-out: Minimum Inhibitory Concentration (MIC), *P. vulgaris No. 33, lactamase-producing strain; 10^6 CFU/ml
# Protocol: as §1
# Ps. aeruginosa IF03445 = assay: as above; assay type: cell-based, Pseudomonas aeruginosa; conditions: Pseudomonas aeruginosa, IF03445, 16 h, read-out: Minimum Inhibitory Concentration (MIC), Ps. aeruginosa IF03445; 10^6 CFU/ml
# Protocol: as §1
# Ps. aeruginosa AK 109 = assay: as above; assay type: cell-based, Pseudomonas aeruginosa; conditions: Pseudomonas aeruginosa, AK109, 16 h
# Protocol: as §1
# Ps. aeruginosa AKR17 = assay: as above; assay type: cell-based, Pseudomonas aeruginosa; conditions: Pseudomonas aeruginosa, 16 h; Ps. aeruginosa AKR17; 10^6 CFU/ml; read-out: Minimum Inhibitory Concentration (MIC)
# Protocol: as §1
# E. coli CSH(RE45) = assay: microbe, parasite or virus in culture; assay type: cell-based; conditions: Escherichia coli, 16 h, read-out: Minimum Inhibitory Concentration (MIC), *E. coli CSH(RE45), lactamase-producing strain; 10^6 CFU/ml
# Protocol: as §1
# E. coli CSH2 (RK1) = assay: microbe, parasite or virus in culture; assay type: cell-based; conditions: Escherichia coli, 16 h, read-out: Minimum Inhibitory Concentration (MIC), *E. coli CSH2 (RK1), lactamase-producing strain; 10^6 CFU/ml
# Protocol: as §1
# A. calcoaceticus No. 4 = assay: in vitro antibacterial activity, agar plate dilution method (MIC); assay type: cell-based, Acinetobacter calcoaceticus; conditions: Acinetobacter calcoaceticus, NO.4, 16 h, 10^6 CFU/ml
# Protocol: as §1
# [1] = read-out: Minimum Inhibitory Concentration (MIC)
# [2] = read-out: Minimum Inhibitory Concentration (MIC), *S. marcescens No. 16-2, lactamase-producing strain, 10^6 CFU/ml
# [3] = Enterobacter cloacae, 16 h, E. cloacae 963, read-out: Minimum Inhibitory Concentration (MIC)
# [4] = 16 h, *K. oxytoca GN10650, lactamase-producing strain, read-out: Minimum Inhibitory Concentration (MIC)
# [5] = read-out: Minimum Inhibitory Concentration (MIC), Ps. aeruginosa AK 109, 10^6 CFU/ml
# [6] = read-out: Minimum Inhibitory Concentration (MIC), A. calcoaceticus No. 4
SMILES,MIC (Ps. cepacia 23) [µg/mL],MIC (K. pneumoniae PCI-602) [µg/mL],MIC (S. aureus 209P NIHJ-JC1; [1]) [µg/mL],MIC (P. vulgaris HX-19) [µg/mL],MIC (S. marcescens No. 16-2; [2]) [µg/mL],MIC (S. marcescens IAM 1184) [µg/mL],MIC (E. coli NIHJ JC2) [µg/mL],MIC (E. cloacae Nek 39) [µg/mL],MIC (E. cloacae 963; [3]) [µg/mL],MIC (K. pneumoniae No. 42) [µg/mL],MIC (P. vulgaris No. 33) [µg/mL],MIC (Ps. aeruginosa IF03445) [µg/mL],MIC (Ps. aeruginosa AKR17) [µg/mL],MIC (E. coli CSH(RE45)) [µg/mL],MIC (E. coli CSH2 (RK1)) [µg/mL],MIC (E. coli GN5482; [1]) [µg/mL],MIC (K. oxytoca GN10650; [4]) [µg/mL],MIC (Ps. aeruginosa AK 109; [5]) [µg/mL],MIC (A. calcoaceticus No. 4; [6]) [µg/mL],further results
"Nc1nc(C(=NOC2CCCC2)C(=O)NC2C(=O)N3C(C(=O)O)=C(CSc4nc(C(=O)O)c(-c5ccc(O)c(O)c5)s4)CSC23)cs1 (stereo not drawn) [Ex. 54, disodium 78-[2-(2-aminothiazol-4-yl)-2-cyclopentyloxyiminoacetamido]-3-[4-carboxylate-5-(3,4-dihydroxyphenyl)thiazol-2-yl]thiomethyl-3-cephem-4-carboxylate]",< 0.006,< 0.006,3.12,< 0.006,1.56,0.05,1.56,0.2,0.1,0.1,0.025,1.56,> 100,3.12,0.1,,,,,"MIC (E. coli GN5482; read-out: Minimum Inhibitory Concentration (MIC), *E. coli GN5482, lactamase-producing strain, 10^6 CFU/ml): 1.56 µg/mL; MIC (K. oxytoca GN10650; GN10650, 16 h, read-out: Minimum Inhibitory Concentration (MIC), *K. oxytoca GN10650, lactamase-producing strain): 1.56 µg/mL; MIC (Ps. aeruginosa AK 109; [1]): 12.5 µg/mL; MIC (A. calcoaceticus No. 4; A. calcoaceticus No. 4, read-out: Minimum Inhibitory Concentration (MIC)): 0.2 µg/mL"
"C=CCON=C(C(=O)NC1C(=O)N2C(C(=O)O)=C(CSc3nc(C(=O)O)c(-c4ccc(O)c(O)c4)s3)CSC12)c1csc(N)n1 (stereo not drawn) [Ex. 55, disodium 78-[2-allyloxyimino-2-(2-aminothiazol-4-yl)acetamido]-3-[4-carboxylate-5-(3,4-dihydroxyphenyl)thiazol-2-yl]thiomethyl-3-cephem-4-carboxylate]",0.025,< 0.006,,< 0.006,,0.1,0.78,0.39,0.1,0.1,0.025,3.12,> 100,0.1,0.0125,3.12,50,6.25,0.1,"MIC (S. aureus 209P NIHJ-JC1; read-out: Minimum Inhibitory Concentration (MIC), S. aureus 209P NIHJ-JC1, 10^6 CFU/ml, 37° C., 16 hours): 6.25 µg/mL; MIC (S. marcescens No. 16-2; [1]): 3.12 µg/mL"
Nc1nc(C(=NOCc2ccccc2)C(=O)NC2C(=O)N3C(C(=O)O)=C(CSc4nc(C(=O)O)c(-c5ccc(O)c(O)c5)s4)CSC23)cs1 (stereo not drawn) [Ex. 57],< 0.006,< 0.006,3.12,< 0.006,6.25,0.1,0.78,0.39,,0.1,0.025,3.12,> 100,0.1,0.0125,3.12,25,6.25,0.39,"MIC (E. cloacae 963; Enterobacter cloacae, 963, 16 h, read-out: Minimum Inhibitory Concentration (MIC), E. cloacae 963): 0.05 µg/mL"
